Assay results published in patent publication US9211290B2, “Solid dispersions of amorphous paroxetine mesylate” (priority 2012, dated 2015).

What was measured:
[1] = Physical stability of solid dispersions exposed in open containers to temperature/humidity stress (PLM, XRPD); format: physicochemical
Experimental: X-ray Powder Diffraction (XRPD): XRPD patterns were collected using a PANalytical X'Pert Pro diffractometer. The specimen was analyzed using Cu radiation produced using an Optix long fine-focus source. An elliptically graded multilayer mirror was used to focus the Cu Kα X-rays of the source through the specimen and onto the detector. The specimen was sandwiched between 3-micron thick films, analyzed in transmission geometry, and rotated to optimize orientation statistics. Soller slits were used for the incident and diffracted beams to minimize axial divergence. Diffraction patterns were collected using a scanning position-sensitive detector (X'Celerator) located 240 mm from the specimen. Prior to the analysis, a silicon specimen (NIST standard reference material 640d) was analyzed to verify the position of the silicon 111 peak.
Polarized Light Microscopy (PLM): Polarized light microscopy was performed using a Leica DM LP microscope equipped with Spot Insight color camera (model 3.2.0). […]
Physical stability experiments were conducted by exposing the dispersions in open containers at Room Temperature (RT) and at elevated temperature and different humidities (expressed as relative humidity, RH). […]
Physical stability was evaluated visually at RT/75% RH after approximately 24 h by PLM for evidence of birefringence and extinction indicative of crystalline material. […]

[2] = Aqueous solubility of paroxetine mesylate Form A; format: physicochemical; conditions: water

SMILES	Acceptable Physical Stability? RT/58% RH 3 d ([1]; 25° C./58% RH used instead of RT/58% RH (footnote b), 3 d)	Acceptable Physical Stability? 60° C./75% RH 2 h ([1]; 60° C./75% RH, 2 h)	solubility [2]
CS(=O)(=O)O.Fc1ccc([C@@H]2CCNC[C@H]2COc2ccc3c(c2)OCO3)cc1 [Example 1-2, paroxetine mesylate]	N	N	–
CS(=O)(=O)O.Fc1ccc([C@@H]2CCNC[C@H]2COc2ccc3c(c2)OCO3)cc1 [paroxetine mesylate Form A, paroxetine mesylate]	–	–	> 1000 mg/mL
